Test [1] deals with sn-Glycerol-3-phosphate Acyl Transferase. As to the kind of experiment: In vitro liver enzyme study: sn-glycerol-3-phosphate acyl transferase. It is filed as biochemical, mouse. Particulars: in vitro CF1 liver. How it is done: In vitro enzymatic studies were determined using 10% homogenates of CF1 male mouse liver with 50-200 μM of test drugs. In vivo enzymatic studies were determined using 10% homogenates of liver from CF1 male mice obtained after administering the agents for 16 days at a dose ranging from 2.5-20 mg/kg/day intraperitoneally. The liver homogenates for both in vitro and in vivo studies were prepared in 0.25M sucrose and 0.001M (ethylenedinitrilo)tetraacetic acid. Acetyl coenzyme A synthetase and adenosine triphosphate dependent citrate lyase activities were determined spectrophotometrically at 540 nm as the hydroxylamate of acetyl coenzyme A formed after 30 min at 37° C. Mitochondrial citrate exchange was determined by the procedure of Robinson et al [Eur. J. Biochem., 216, 63 (1970)] using ^14 C-sodium bicarbonate (41 mCi/mmol) incorporated into mitochondrial ^14 C-citrate after isolating rat mitochondria (9000 g×10 min) from the homogenates. The exchanges of the ^14 C-citrate were determined after incubating the mitochondrial fraction which was loaded with labeled citrate and test drugs for 10 min. Then the radioactivity was measured in the mitochondrial and supernantant fractions in scintillation fluid and expressed as a percentage. Cholesterol side chain oxidation was determined by the method of Kritchevsky and Tepper [Artherosclerosis, 18, 93 (1973)] using (26-^14 C) cholesterol (50 mCi/mmol) and mitochondria isolated from rat liver homogenates. […] Fatty acid synthetase activity was determined by the method of Brady et al [J. Biol. Chem., 235, 3093 (1960)] using [2-^14 C] malonyl-coenzyme A (37.5 mCi/mmol) which was incorporated into newly synthesized fatty acids that were extracted with ether and counted. Acyl transferase activity was determined with glycerol-3phosphate [L-2-^3 H(N)] […] HCl and counted. Phosphatidate phosphohydrolase activity was measured as the inorganic phosphate released after 30 min from phosphatidic acid by the method of Mavis et al [J. Lipid Res., 19, 467 (1978)]. […]

For test [2], the system named is protein synthesis of Ehrlich ascites cells. As to the kind of experiment: In vitro whole cell incorporation: protein synthesis. It is filed as cell-based, mouse. The conditions noted are these: preliminary, 60 min, read-out: ID50, protein synthesis. How it is done: (§1) CF1 male mice (~30 g) were implanted with 2×10^6 Ehrlich ascites tumor cells, intraperitoneally on Day 0. Compound I was suspended by homogenation in 0.05% polysorbate.80-water and administered intraperitoneally at 10 and 20 mg/kg for 9 days to determine its effectiveness for inhibition of tumor growth. Mice were sacrificed on Day 10, and the ascites fluid was collected from the peritoneal cavity. The volume and ascrit (packed cell volume) were determined for each animal and the percent inhibition of tumor growth was calculated. For the metabolic studies, mice were treated on Days 8 and 9 with 10 mg/kg of Compound I, intraperitoneally. The animal was sacrificed on Day 10 and the ascites fluid harvested. The in vitro metabolic studies were performed at 0.25, 0.50 and 1 mmol final concentration of Compound I.
In vitro incorporation of ^3 H-thymidine, ^3 H-uridine, or ^3 H-leucine was determined using 10^6 Ehrlich ascites cells, 1 μCi labeled precursor, minimum essential medium and varying final concentrations of drug from 0.25-1.0 mM. The tubes were incubated at 37° C. for 60 min and inactivated by trichloroacetic acid. The acid insoluble labeled deoxyribonucleic acid was collected on GF/F glass filter discs and ribonucleic acid and protein were precipitated on nitrocellulose filters by vacuum suction. Results are expressed as dpm of incorporated precursor per hour per 10^6 cells.

Test [3] relates to formate incorporation into purine. As to the kind of experiment: In vitro formate incorporation into purine (supernatant fraction). It is filed as biochemical, mouse. The conditions noted are these: read-out: ID50, formate incorporation into purine. How it is done:
as §1, with “The animal was sacrificed on Day 10 and the ascites fluid harvested. The in vitro metabolic studies were performed at 0.25, 0.50 and 1 mmol final concentration of Compound I.” left out
Carbamyl phosphate synthetase activity was determined using the reaction medium of Kalman et al [Am. […] Citrulline formed from ornithine was measured at 490 nm by the method of Archibald [J. Biol. Chem., 156, 121 (1944)]. […] The ^14 CO2 generated in 15 min was trapped in 1M KOH and counted. Thymidylate synthetase activity was determined using a post-mitochondrial supernatant (9000 g×10 min) and 5 μCi of 5-^3 H-deoxyuridine monophosphate (14 Ci/mmol) according to the method of Kampf et al [ J. Med. Chem., 19, 903 (1976)]. ^14 C-Formate incorporation into purines was determined by the method of Spassova et al [Biochem. Pharmacol., 25, 923 (1976)] using 0.5 μCi of ^14 C-formic acid (52.0 mCi/mmol). […] The Rf value for xanthine monophosphate was scraped and counted. […]

From patent US4550186A, “Binuclear copper (II) carboxylates formed from amine-carboxyboranes” (Duke University, priority 1983, dated 1985) come the findings set out here.

Take “{Cu[(CH3)3 N.BH2 CO2 ]2.(CH3)3 N.BH2 COOH} [Compound I]”: the “sn-Glycerol-3-phosphate Acyl Transferase” value in test [1] (50 μM) was found to be 108 ± 6 Percent Control; in test [1] (100 μM) it was 92 ± 8 Percent Control; in test [1] (200 μM), 89 ± 6 Percent Control. Further, the IC50 was determined as 0.863 mM in test [2] and 1.71 mM in test [3].
